pIC50: −log10 of the molar value.
Each compound was assayed against T1, human TREK-1 (Homo sapiens, UniProt O95069) (assay: TREK-1 Thallium (Tl+) flux assay, Method 1). Conditions: TREK-1 Thallium (Tl+) flux assay, Method 1.
T1 construct: expressed in transfected cells
T1 sequence (O95069 1-426): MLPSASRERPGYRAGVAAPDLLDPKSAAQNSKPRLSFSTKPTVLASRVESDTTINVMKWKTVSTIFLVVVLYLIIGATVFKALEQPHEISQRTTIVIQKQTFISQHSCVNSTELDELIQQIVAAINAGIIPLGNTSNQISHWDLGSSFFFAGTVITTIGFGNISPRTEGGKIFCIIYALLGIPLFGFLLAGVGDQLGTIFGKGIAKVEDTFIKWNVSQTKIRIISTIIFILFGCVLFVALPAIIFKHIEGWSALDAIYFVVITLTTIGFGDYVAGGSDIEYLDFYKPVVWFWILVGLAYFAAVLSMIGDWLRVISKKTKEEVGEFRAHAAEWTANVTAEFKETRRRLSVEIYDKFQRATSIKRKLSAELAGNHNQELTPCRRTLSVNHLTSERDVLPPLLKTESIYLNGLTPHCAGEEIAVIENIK
Type: cell-based
Experimental: The term “thallium flux assay” herein refers to a fluorescence-based assay used to monitor the activity of TREK channels. Thallium is a congener of potassium that readily fluxes through the pore of TREK channels. Thallium flux is measured using a commercially available, thallium-sensitive fluorescent dye called Thallos. The detail method is described below.
CHO-K1 cells stably expressing human TREK-1 were plated in 384-well plates, cultured overnight, loaded with Thallos dye the following day. Test compounds or control compound (tert-butyl (3-((4-(benzyloxy)-2-methylphenyl)carbamoyl)-4-chlorophenyl)carbamate) or 0.3% DMSO (vehicle control) which were prepared on separate plates were added to the cell plates and incubated for 10 min, and then the cells were treated with thallium stimulus buffer to initiate thallium flux. To measure the efficacy and potency of test compounds, the change in fluorescence intensity (ΔRatio) and % inhibition were calculated using the following equations:
ΔRatio=(fluorescence intensity at 25 seconds after thallium addition)/(average of fluorescent intensity before thallium addition)
`CCCCOc1ccc(-c2cnc(NC(=O)c3c(Cl)cnn3C3CCN(C(C)=O)CC3)c(C)c2)cc1` [Compound 416, 1-(1-acetylpiperidin-4-yl)-N-(5-(4-butoxyphenyl)-3-methylpyridin-2-yl)-4-chloro-1H-pyrazole-5-carboxamide] gave a pIC50 of 5.39.
Compound `COc1cc(-c2cnc(NC(=O)c3c(Cl)cnn3C3CCN(C(=O)OC(C)(C)C)CC3)c(C)c2)ccn1` [Compound 437, tert-butyl 4-(4-chloro-5-((2′-methoxy-5-methyl-[3,4′-bipyridin]-6-yl)carbamoyl)-1H-pyrazol-1-yl)piperidine-1-carboxylate] has a pIC50 of 5.00.

Same assay, conditions: TREK-1 Thallium (Tl+) flux assay; no *^12 (Method 2) mark on these rows
With `CC(=O)N1C[C@H]2C[C@H](n3ncc(Cl)c3C(=O)Nc3ncc(C#Cc4ccccc4)cc3C)C[C@H]2C1` [Compound 260, 1-[(3aR,5s,6aS)-2-acetyloctahydrocyclopenta[c]pyrrol-5-yl]-4-chloro-N-[3-methyl-5-(phenylethynyl)pyridin-2-yl]-1H-pyrazole-5-carboxamide] the pIC50 was 6.59.
For `COc1ccc(-c2cnc(NC(=O)c3c(Cl)cnn3C3CCN(C(=O)OC(C)(C)C)CC3)c(C)c2)cc1C(C)C` [Compound 390, tert-butyl 4-(4-chloro-5-((5-(3-isopropyl-4-methoxyphenyl)-3-methylpyridin-2-yl)carbamoyl)-1H-pyrazol-1-yl)piperidine-1-carboxylate], the pIC50 was 5.92.
Work on `Cc1cc(C#Cc2ccccc2)cnc1NC(=O)c1c(Cl)cnn1C[C@@H]1COCCO1` [Compound 338, (R)-1-((1,4-dioxan-2-yl)methyl)-4-chloro-N-(3-methyl-5-(phenylethynyl)pyridin-2-yl)-1H-pyrazole-5-carboxamide] yielded a pIC50 of 6.14.
Work on `Cc1cc(-c2cnn(-c3ccc(F)cc3)c2)cnc1NC(=O)c1c(Cl)cnn1C[C@H]1CCOC1` [Compound 387, (R)-4-chloro-N-(5-(1-(4-fluorophenyl)-1H-pyrazol-4-yl)-3-methylpyridin-2-yl)-1-((tetrahydrofuran-3-yl)methyl)-1H-pyrazole-5-carboxamide] yielded a pIC50 of 6.05.
With `CC(=O)N1CCC(n2ncc(Cl)c2C(=O)Nc2cnc(C#Cc3ccccc3)c(F)c2)CC1` [Compound 378, 1-(1-acetylpiperidin-4-yl)-4-chloro-N-(5-fluoro-6-(phenylethynyl)pyridin-3-yl)-1H-pyrazole-5-carboxamide] the pIC50 was 5.25.
`CC(=O)N1CCC(F)(Cn2ncc(Cl)c2C(=O)Nc2ncc(C#Cc3ccccc3)cc2F)CC1` [Compound 228, 1-((1-acetyl-4-fluoropiperidin-4-yl)methyl)-4-chloro-N-(3-fluoro-5-(phenylethynyl)pyridin-2-yl)-1H-pyrazole-5-carboxamide] showed a pIC50 of 6.46.
For `O=C(Nc1ncc(C#Cc2ccc(F)cc2)cc1F)c1c(Cl)cnn1CC1CCOCC1` [Compound 233, 4-chloro-N-(3-fluoro-5-((4-fluorophenyl)ethynyl)pyridin-2-yl)-1-((tetrahydro-2H-pyran-4-yl)methyl)-1H-pyrazole-5-carboxamide], the pIC50 was 6.44.
`Cc1cc(C#Cc2ccccc2)cnc1NC(=O)c1c(Cl)cnn1C[C@H]1CCCN(C(=O)C(C)C)C1` [Compound 263] showed a pIC50 of 6.37.
Compound `O=C(Nc1ncc(C#Cc2ccccc2)cc1F)c1c(Cl)cnn1C1CCN(C(=O)C2CCCC2)CC1` [Compound 299, 4-chloro-1-(1-(cyclopentanecarbonyl)piperidin-4-yl)-N-(3-fluoro-5-(phenylethynyl)pyridin-2-yl)-1H-pyrazole-5-carboxamide] has a pIC50 of 6.27.
For `Cc1cc(C#Cc2ccc(F)cc2)cnc1NC(=O)c1c(Cl)cnn1CC1CCN(C(=O)C(C)C)CC1(F)F` (stereo not drawn) [Compound 350, 4-chloro-1-((3,3-difluoro-1-isobutyrylpiperidin-4-yl)methyl)-N-(5-((4-fluorophenyl)ethynyl)-3-methylpyridin-2-yl)-1H-pyrazole-5-carboxamide], the pIC50 was 6.09.
Work on `Cc1cc(C#Cc2ccc(F)cc2)cnc1NC(=O)c1c(Cl)cnn1[C@H]1CCOC1` [Compound 322, (S)-4-chloro-N-(5-((4-fluorophenyl)ethynyl)-3-methylpyridin-2-yl)-1-(tetrahydrofuran-3-yl)-1H-pyrazole-5-carboxamide] yielded a pIC50 of 6.20.
`Cc1cc(C#Cc2ccccc2)cnc1NC(=O)c1c(Cl)cnn1C1CN(C(=O)OC(C)(C)C)C1` [Compound 287, tert-butyl 3-(4-chloro-5-((3-methyl-5-(phenylethynyl)pyridin-2-yl)carbamoyl)-1H-pyrazol-1-yl)azetidine-1-carboxylate] gave a pIC50 of 6.30.
`CC(C)(C)OC(=O)N1CC[C@@H](Cn2ncc(Cl)c2C(=O)Nc2ncc(C#Cc3ccccc3)cc2F)[C@H](F)C1` [Compound 240, tert-butyl (3S,4S)-4-((4-chloro-5-((3-fluoro-5-(phenylethynyl)pyridin-2-yl)carbamoyl)-1H-pyrazol-1-yl)methyl)-3-fluoropiperidine-1-carboxylate] gave a pIC50 of 6.43.
In the case of `Cc1cc(C#Cc2cccc(F)c2)cnc1NC(=O)c1c(Cl)cnn1CC1CCN(C(=O)C(C)C)CC1` [Compound 249, 4-chloro-N-(5-((3-fluorophenyl)ethynyl)-3-methylpyridin-2-yl)-1-((1-isobutyrylpiperidin-4-yl)methyl)-1H-pyrazole-5-carboxamide], the pIC50 was 6.40.
Work on `CC(C)(C)OC(=O)N1CCCC(Cn2ncc(Cl)c2C(=O)Nc2ncc(C#Cc3ccccc3)cc2F)C1` (stereo not drawn) [Compound 365, tert-butyl 3-((4-chloro-5-((3-fluoro-5-(phenylethynyl)pyridin-2-yl)carbamoyl)-1H-pyrazol-1-yl)methyl)piperidine-1-carboxylate] yielded a pIC50 of 6.04.

Same assay, conditions: TREK-1 Thallium (Tl+) flux assay; values without footnote *12 are Method 1
Compound `Cc1cc(C#Cc2cccc(F)c2)cnc1NC(=O)c1c(Cl)cnn1CC1CCN(C(=O)C2COCCO2)CC1` (stereo not drawn) [Compound 104, 1-((1-(1,4-dioxane-2-carbonyl)piperidin-4-yl)methyl)-4-chloro-N-(5-((3-fluorophenyl)ethynyl)-3-methylpyridin-2-yl)-1H-pyrazole-5-carboxamide] has a pIC50 of 6.72.
For `CC(=O)N1CC[C@H](n2ncc(Cl)c2C(=O)Nc2ncc(C#Cc3ccccc3)cc2C)[C@H](F)C1` [Compound 99, 1-((3R,4S)-1-acetyl-3-fluoropiperidin-4-yl)-4-chloro-N-(3-methyl-5-(phenylethynyl)pyridin-2-yl)-1H-pyrazole-5-carboxamide], the pIC50 was 6.74.
Compound `Cc1cc(C#Cc2ccccc2)cnc1NC(=O)c1c(Cl)cnn1CC1(C#N)CCN(C(=O)OC(C)(C)C)CC1` [Compound 126, tert-butyl 4-((4-chloro-5-((3-methyl-5-(phenylethynyl)pyridin-2-yl)carbamoyl)-1H-pyrazol-1-yl)methyl)-4-cyanopiperidine-1-carboxylate] has a pIC50 of 6.68.
In the case of `CC(=O)N1CC[C@H](Cn2ncc(Cl)c2C(=O)Nc2ncc(C#Cc3ccccc3)cc2F)[C@H](F)C1` [Compound 48, 1-(((3S,4R)-1-acetyl-3-fluoropiperidin-4-yl)methyl)-4-chloro-N-(3-fluoro-5-(phenylethynyl)pyridin-2-yl)-1H-pyrazole-5-carboxamide], the pIC50 was 6.89.
`Cc1cc(C#Cc2ccc(F)cc2)cnc1NC(=O)c1c(Cl)cnn1C1CCN(C(=O)C2COCCO2)CC1` (stereo not drawn) [Compound 65, 1-(1-(1,4-dioxane-2-carbonyl)piperidin-4-yl)-4-chloro-N-(5-((4-fluorophenyl)ethynyl)-3-methylpyridin-2-yl)-1H-pyrazole-5-carboxamide] was tested, and the pIC50 was 6.82.
Work on `Cc1cc(C#Cc2ccccc2)cc(F)c1NC(=O)c1c(Cl)cnn1[C@H]1CCOC1` [Compound 157, (S)-4-chloro-N-(2-fluoro-6-methyl-4-(phenylethynyl)phenyl)-1-(tetrahydrofuran-3-yl)-1H-pyrazole-5-carboxamide] yielded a pIC50 of 6.60.
In the case of `Cc1cc(C#Cc2ccccc2)cnc1NC(=O)c1c(Cl)cnn1C1CN(C(=O)C2COCCO2)C1` (stereo not drawn) [Compound 81, 1-(1-(1,4-dioxane-2-carbonyl)azetidin-3-yl)-4-chloro-N-(3-methyl-5-(phenylethynyl)pyridin-2-yl)-1H-pyrazole-5-carboxamide], the pIC50 was 6.80.
`CCNC(=O)N1C[C@H]2C[C@H](n3ncc(Cl)c3C(=O)Nc3ncc(C#Cc4cccs4)cc3C)C[C@H]2C1` [Compound 74, (3aR,5s,6aS)-5-[4-chloro-5-({3-methyl-5-[(thiophen-2-yl)ethynyl]pyridin-2-yl}carbamoyl)-1H-pyrazol-1-yl]-N-ethylhexahydrocyclopenta[c]pyrrole-2(1H)-carboxamide] was tested, and the pIC50 was 6.80.
`CC(=O)N1CCC(n2ncc(Cl)c2C(=O)Nc2ncc(C#Cc3ccccc3)cc2C)CC1C` (stereo not drawn) [Compound 61, 1-(1-acetyl-2-methylpiperidin-4-yl)-4-chloro-N-(3-methyl-5-(phenylethynyl)pyridin-2-yl)-1H-pyrazole-5-carboxamide] showed a pIC50 of 6.82.

Same assay, conditions: read-out: Tl^+ Assay % inhibition at 30 uM (Minus value indicates activation of TREK-1); at 30 uM; CHO-K1 cells stably expressing human TREK-1; minus = activation
Work on `Cc1cc(C#Cc2ccccc2)cnc1NC(=O)c1nn(CC2COCCO2)cc1Cl` (stereo not drawn) [Compound 449, 1-((1,4-dioxan-2-yl)methyl)-4-chloro-N-(3-methyl-5-(phenylethynyl)pyridin-2-yl)-1H-pyrazole-3-carboxamide] yielded an inhibition at 30 µM of -99%.

— patent US20240182445A1 (ONO PHARMACEUTICAL CO., LTD., priority 2019, published 2024)
